Data reported in ChEMBL document CHEMBL5291721, “A preclinical secondary pharmacology resource illuminates target-adverse drug reaction associations of marketed drugs” (Nat Commun, 2023).

Legend:
[1] = biological target: T1, Muscarinic acetylcholine receptor M5 (Homo sapiens, UniProt P08912)
T1 sequence (P08912 whole entry): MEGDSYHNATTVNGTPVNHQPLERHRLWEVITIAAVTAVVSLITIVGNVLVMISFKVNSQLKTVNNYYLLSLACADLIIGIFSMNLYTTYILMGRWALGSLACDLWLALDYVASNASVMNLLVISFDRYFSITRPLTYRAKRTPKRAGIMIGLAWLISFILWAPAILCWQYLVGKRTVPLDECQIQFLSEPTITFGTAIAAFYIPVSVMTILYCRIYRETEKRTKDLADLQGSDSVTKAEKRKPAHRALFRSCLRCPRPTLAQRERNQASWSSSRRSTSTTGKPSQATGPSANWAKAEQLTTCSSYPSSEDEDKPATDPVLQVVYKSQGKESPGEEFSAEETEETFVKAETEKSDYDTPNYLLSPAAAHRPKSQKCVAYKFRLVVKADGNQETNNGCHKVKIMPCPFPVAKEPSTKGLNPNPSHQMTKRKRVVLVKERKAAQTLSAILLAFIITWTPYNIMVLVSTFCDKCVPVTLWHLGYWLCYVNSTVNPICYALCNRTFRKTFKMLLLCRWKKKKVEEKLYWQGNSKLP

Substance-K receptor = biological target: T2, Substance-K receptor (Homo sapiens, UniProt P21452)
T2 sequence (P21452 whole entry): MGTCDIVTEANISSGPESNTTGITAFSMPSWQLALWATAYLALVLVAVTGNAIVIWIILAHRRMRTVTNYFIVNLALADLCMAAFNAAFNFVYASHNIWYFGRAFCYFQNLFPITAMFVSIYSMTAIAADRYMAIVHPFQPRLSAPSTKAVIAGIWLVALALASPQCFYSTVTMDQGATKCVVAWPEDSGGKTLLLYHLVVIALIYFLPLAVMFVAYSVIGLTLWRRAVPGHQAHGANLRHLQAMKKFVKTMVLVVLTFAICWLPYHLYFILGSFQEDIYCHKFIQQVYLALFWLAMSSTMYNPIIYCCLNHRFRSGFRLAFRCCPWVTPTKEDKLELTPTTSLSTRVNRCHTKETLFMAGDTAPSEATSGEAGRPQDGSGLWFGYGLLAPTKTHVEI

D(1A) dopamine receptor = D(1A) dopamine receptor (Homo sapiens, UniProt P21728); type: functional, cell-based
D(1A) dopamine receptor, sequence (P21728 whole entry): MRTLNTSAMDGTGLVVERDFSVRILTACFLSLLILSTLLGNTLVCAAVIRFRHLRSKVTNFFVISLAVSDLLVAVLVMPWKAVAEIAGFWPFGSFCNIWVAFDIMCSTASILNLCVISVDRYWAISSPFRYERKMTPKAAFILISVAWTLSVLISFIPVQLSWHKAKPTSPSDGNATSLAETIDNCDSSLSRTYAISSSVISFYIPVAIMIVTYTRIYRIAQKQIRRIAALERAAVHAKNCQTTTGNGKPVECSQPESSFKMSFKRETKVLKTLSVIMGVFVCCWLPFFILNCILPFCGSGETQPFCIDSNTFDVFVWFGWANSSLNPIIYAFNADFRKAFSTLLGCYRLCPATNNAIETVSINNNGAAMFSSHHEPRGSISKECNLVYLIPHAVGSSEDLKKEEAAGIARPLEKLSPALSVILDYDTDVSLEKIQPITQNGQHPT

Estrogen receptor = biological target: T3, Estrogen receptor (Homo sapiens, UniProt P03372)
T3 sequence (P03372 whole entry): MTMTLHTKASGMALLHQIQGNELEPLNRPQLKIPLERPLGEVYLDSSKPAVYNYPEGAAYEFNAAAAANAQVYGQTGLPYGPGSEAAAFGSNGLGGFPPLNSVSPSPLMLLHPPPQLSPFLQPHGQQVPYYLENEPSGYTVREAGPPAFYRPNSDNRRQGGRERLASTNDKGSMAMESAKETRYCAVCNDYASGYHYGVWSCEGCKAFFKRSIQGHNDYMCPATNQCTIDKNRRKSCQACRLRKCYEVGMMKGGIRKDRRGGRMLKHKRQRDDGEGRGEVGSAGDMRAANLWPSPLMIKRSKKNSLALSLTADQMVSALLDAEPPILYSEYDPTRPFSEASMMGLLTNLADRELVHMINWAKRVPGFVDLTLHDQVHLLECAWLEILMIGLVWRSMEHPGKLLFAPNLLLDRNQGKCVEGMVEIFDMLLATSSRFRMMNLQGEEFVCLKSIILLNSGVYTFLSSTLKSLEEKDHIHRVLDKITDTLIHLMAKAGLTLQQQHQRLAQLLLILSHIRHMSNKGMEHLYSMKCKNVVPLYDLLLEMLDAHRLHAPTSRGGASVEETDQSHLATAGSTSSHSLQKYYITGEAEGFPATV

Prothrombin = Prothrombin (Homo sapiens, UniProt P00734); type: functional
[2] = biological target: Gamma-aminobutyric acid receptor subunit alpha-1 (Rattus norvegicus, UniProt P62813)
Gamma-aminobutyric acid receptor subunit alpha-1, sequence (P62813 whole entry): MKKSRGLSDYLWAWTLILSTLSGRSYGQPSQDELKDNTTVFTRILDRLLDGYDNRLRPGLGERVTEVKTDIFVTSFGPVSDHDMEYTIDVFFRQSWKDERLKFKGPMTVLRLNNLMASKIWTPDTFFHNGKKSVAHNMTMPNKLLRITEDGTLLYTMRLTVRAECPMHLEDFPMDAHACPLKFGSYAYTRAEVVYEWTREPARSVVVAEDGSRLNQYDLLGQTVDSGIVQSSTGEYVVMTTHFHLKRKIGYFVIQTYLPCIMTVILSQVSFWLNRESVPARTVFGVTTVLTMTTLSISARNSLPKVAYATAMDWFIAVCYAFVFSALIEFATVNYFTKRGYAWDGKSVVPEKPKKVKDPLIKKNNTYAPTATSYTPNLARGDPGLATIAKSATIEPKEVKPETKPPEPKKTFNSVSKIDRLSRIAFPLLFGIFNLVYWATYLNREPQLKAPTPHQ

Histamine H3 receptor = Histamine H3 receptor (Homo sapiens, UniProt Q9Y5N1)
Histamine H3 receptor, sequence (Q9Y5N1 whole entry): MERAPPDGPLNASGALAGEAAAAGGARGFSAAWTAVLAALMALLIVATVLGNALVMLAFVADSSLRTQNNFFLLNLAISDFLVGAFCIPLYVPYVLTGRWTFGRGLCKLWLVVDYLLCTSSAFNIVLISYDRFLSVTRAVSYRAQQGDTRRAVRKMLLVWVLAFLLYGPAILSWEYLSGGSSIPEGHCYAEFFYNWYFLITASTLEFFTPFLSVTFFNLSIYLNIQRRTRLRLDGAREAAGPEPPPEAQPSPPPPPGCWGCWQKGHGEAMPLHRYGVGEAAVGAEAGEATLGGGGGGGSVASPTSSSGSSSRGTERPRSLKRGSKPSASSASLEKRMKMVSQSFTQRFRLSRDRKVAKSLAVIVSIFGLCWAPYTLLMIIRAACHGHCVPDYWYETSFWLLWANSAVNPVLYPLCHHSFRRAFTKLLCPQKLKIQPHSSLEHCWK

Mu-type opioid receptor = Mu-type opioid receptor (Homo sapiens, UniProt P35372)
Mu-type opioid receptor, sequence (P35372 whole entry): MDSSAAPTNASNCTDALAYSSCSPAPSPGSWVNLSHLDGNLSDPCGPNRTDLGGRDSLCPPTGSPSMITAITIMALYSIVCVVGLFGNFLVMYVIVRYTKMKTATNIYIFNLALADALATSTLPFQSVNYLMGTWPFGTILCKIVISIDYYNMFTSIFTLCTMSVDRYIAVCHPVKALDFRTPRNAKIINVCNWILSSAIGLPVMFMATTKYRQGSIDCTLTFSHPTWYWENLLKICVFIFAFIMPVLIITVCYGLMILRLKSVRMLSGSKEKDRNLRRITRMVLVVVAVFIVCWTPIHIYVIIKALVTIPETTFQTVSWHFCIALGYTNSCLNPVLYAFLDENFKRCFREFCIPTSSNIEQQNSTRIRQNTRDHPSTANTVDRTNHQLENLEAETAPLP

Progesterone receptor = biological target: T4, Progesterone receptor (Homo sapiens, UniProt P06401)
T4 sequence (P06401 whole entry): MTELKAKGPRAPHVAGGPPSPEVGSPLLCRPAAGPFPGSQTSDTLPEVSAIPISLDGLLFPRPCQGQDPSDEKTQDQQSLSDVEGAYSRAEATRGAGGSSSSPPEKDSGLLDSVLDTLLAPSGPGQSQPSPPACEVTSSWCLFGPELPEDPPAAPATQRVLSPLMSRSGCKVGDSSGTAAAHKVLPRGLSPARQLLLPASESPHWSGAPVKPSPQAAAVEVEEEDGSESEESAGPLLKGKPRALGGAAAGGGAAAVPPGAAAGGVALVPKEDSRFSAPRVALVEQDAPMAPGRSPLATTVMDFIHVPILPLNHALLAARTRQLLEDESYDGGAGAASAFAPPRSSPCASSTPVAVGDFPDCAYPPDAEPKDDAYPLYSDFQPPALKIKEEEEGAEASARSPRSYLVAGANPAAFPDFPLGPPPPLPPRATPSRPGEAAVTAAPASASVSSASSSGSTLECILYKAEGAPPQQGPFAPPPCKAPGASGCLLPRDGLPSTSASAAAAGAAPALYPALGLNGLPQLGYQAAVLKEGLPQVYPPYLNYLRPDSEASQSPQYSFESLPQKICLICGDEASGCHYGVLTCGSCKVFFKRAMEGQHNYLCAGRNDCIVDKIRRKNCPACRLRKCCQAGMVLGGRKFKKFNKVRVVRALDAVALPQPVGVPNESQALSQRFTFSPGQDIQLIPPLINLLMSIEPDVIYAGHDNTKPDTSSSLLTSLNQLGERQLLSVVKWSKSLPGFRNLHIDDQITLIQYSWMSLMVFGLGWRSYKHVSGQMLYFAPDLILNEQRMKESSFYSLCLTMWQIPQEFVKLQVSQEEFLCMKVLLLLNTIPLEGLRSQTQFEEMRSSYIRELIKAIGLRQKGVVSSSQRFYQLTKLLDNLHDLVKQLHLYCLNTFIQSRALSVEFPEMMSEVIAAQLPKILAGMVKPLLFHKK

[3] = biological target: Sodium-dependent noradrenaline transporter (Homo sapiens, UniProt P23975)
Sodium-dependent noradrenaline transporter, sequence (P23975 whole entry): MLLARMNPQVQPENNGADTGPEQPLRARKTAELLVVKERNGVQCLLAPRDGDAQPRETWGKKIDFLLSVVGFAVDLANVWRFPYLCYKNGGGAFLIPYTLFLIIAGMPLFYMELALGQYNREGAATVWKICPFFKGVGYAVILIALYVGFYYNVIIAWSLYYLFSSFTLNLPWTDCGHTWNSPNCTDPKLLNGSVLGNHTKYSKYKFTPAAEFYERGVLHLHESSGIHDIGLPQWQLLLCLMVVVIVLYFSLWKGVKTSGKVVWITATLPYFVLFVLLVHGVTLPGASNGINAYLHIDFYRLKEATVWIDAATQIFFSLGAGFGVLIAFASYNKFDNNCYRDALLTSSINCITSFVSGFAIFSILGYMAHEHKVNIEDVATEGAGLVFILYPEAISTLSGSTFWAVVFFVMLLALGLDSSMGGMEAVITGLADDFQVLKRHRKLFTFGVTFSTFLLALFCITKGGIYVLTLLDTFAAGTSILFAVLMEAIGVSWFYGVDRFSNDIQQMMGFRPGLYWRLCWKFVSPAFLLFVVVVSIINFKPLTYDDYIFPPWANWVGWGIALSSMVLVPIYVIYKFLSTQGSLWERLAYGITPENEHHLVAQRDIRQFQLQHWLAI

[4] = biological target: Sodium-dependent dopamine transporter (Homo sapiens, UniProt Q01959)
Sodium-dependent dopamine transporter, sequence (Q01959 whole entry): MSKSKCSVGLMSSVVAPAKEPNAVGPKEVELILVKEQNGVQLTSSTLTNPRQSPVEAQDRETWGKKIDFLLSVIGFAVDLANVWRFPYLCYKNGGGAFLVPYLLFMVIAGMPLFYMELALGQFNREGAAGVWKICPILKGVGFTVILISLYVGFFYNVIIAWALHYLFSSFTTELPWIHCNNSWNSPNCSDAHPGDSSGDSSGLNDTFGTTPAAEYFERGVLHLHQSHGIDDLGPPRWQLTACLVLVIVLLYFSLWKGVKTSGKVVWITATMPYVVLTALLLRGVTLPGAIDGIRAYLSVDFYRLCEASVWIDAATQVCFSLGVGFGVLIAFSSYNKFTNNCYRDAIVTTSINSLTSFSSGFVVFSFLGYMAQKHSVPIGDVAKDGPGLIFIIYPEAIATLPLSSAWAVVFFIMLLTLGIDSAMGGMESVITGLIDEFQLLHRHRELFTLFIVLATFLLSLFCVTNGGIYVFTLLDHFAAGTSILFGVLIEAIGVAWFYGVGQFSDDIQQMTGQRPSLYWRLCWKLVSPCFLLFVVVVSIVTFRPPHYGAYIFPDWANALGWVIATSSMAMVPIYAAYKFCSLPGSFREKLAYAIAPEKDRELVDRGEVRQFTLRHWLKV
Further: assay procedure not described here.

For CN(C)C(=O)OC1N=C(c2ccccc2)c2cc(Cl)ccc2N(C)C1=O (stereo unspecified) [CAMAZEPAM], the AC50 [1] was > 10 µM and the AC50 (Substance-K receptor) was > 10 µM.
For CCN1CCC[C@H]1CNC(=O)c1cc(S(N)(=O)=O)ccc1OC [LEVOSULPIRIDE], the AC50 (D(1A) dopamine receptor) was > 30 µM.
NC(=O)C[S+]([O-])C(c1ccccc1)c1ccccc1 (stereo unspecified) [MODAFINIL] was tested, and the AC50 [1] was > 10 µM and the AC50 (Substance-K receptor) was > 10 µM.
CCCCCCC(C)(C)c1cc(O)c2c(c1)OC(C)(C)C1CCC(=O)CC21 (stereo unspecified) [NABILONE] was tested, and the AC50 (D(1A) dopamine receptor) was > 30 µM.
For O=C(O)CCCc1ccccc1 [PHENYLBUTANOIC ACID], the AC50 [1] was > 10 µM and the AC50 (Substance-K receptor) was > 10 µM.
With Nc1nc2ccc(OC(F)(F)F)cc2s1 [RILUZOLE] the AC50 (Estrogen receptor) was > 30 µM, the AC50 (Prothrombin) was > 30 µM and the AC50 [2] was > 30 µM. For the same molecule, the AC50 (Histamine H3 receptor) was > 30 µM, the AC50 (Mu-type opioid receptor) was > 30 µM and the AC50 (Progesterone receptor) was > 30 µM. For the same molecule, the AC50 [3] was 2.59 µM and the AC50 [4] was 18.7 µM.
For Cc1ccc(-c2nc3ccc(C)cn3c2CC(=O)N(C)C)cc1 [ZOLPIDEM], the AC50 [1] was > 10 µM and the AC50 (Substance-K receptor) was > 10 µM.
With BIVALIRUDIN the AC50 (Estrogen receptor) was > 30 µM, the AC50 (Prothrombin) was 0.0092 µM and the AC50 [2] was > 30 µM. For the same molecule, the AC50 (Histamine H3 receptor) was > 30 µM, the AC50 (Mu-type opioid receptor) was > 30 µM and the AC50 (Progesterone receptor) was > 30 µM. For the same molecule, the AC50 [3] was > 30 µM and the AC50 [4] was > 30 µM.
